According to patent publication US4760081A, “1,6-naphthyridine derivatives useful for treating diseases of the blood vessels” (Goedecke Aktiengesellschaft, priority 1984, dated 1988):
Counter-ions that a name gives are not always drawn. Like-named read-outs stand apart in the source and are kept apart here.

Legend:
arteria basilaris = assay: Isolated smooth muscle: inhibition of K+ depolarization contraction of blood vessel rings in an organ bath, A. basilaris; assay type: cell-based; conditions: rabbit, average diameter 0.5-1.0 mm, read-out: IC50, semi-maximum inhibition of the K+ depolarization contraction of blood vessel rings, A. bas.
Source text: (§1) Isolated smooth muscle from rabbits (blood vessel rings, A. basilaris, A. coronaria, A. saphena) are fixed in an organ bath in such a manner that isometric contractions can be measured. The contraction is initiated by a potassium depolarization in tyrode solution.

arteria coronaria = assay: Isolated smooth muscle: inhibition of K+ depolarization contraction of blood vessel rings in an organ bath, A. coronaria; assay type: cell-based; conditions: rabbit, average diameter 0.5-1.0 mm, read-out: IC50, semi-maximum inhibition of the K+ depolarization contraction of blood vessel rings, A. cor.
Source text: as §1

[1] = tested on: isolated papillary muscle of the guinea pig; assay: Isolated papillary muscle: isometric contraction under field stimulation; assay type: cell-based; conditions: for IC50: read-out: IC50 /100 (IC = inhibition concentration, IC100 corresponds to maximum action) (converted)
Source text: However, it cannot be excluded that the dimethyl sulfoxide used as a solvent has contributed to the observed positive inotropic action.

arteria saphena = assay: Isolated smooth muscle: inhibition of K+ depolarization contraction of blood vessel rings in an organ bath, A. saphena; assay type: cell-based; conditions: rabbit, average diameter 0.5-1.0 mm, read-out: IC50, semi-maximum inhibition of the K+ depolarization contraction of blood vessel rings, A. saph.
Source text: as §1

[2] = tested on: papillary muscle of the rabbit; conditions: Hof and Scholtysik, cited from earlier work
[3] = Cavia porcellus, papillary muscle of guinea pig, 250/min, 10 msec, 10-20 V field stimulation

Molecule: CCOC(=O)C1=C(C)Nc2ccnc(OC(C)CC)c2C1c1ccccc1C(F)(F)F (racemic) [Example 1p, ethyl (±)-5-sec-butoxy-1,4-dihydro-2-methyl-4-(2-trifluoromethylphenyl)-1,6-napthyridine-3-carboxylate hydrochloride]
- IC50 (arteria basilaris; Oryctolagus cuniculus): 16 nM
- IC50 (arteria coronaria; Oryctolagus cuniculus): 53 nM
- IC50 [1, 3]: 10 µM

Molecule: CCOC(=O)C1=C(C)Nc2ccnc(OC)c2C1c1cccc([N+](=O)[O-])c1 (racemic) [Example 2b, ethyl (±)-1,4-dihydro-5-methoxy-2-methyl-4-(3-nitrophenyl)-1,6-naphthyridine-3-carboxylate]
- IC50 (arteria basilaris; Oryctolagus cuniculus): 1.8 nM
- IC50 (arteria coronaria; Oryctolagus cuniculus): 12 nM
- IC50 (arteria saphena; Oryctolagus cuniculus): 600 nM

Molecule: COC(=O)C1=C(C)Nc2ccnc(OC(C)C)c2C1c1ccccc1 (racemic) [Example 1c, methyl (±)-1,4-dihydro-5-isopropoxy-2-methyl-4-phenyl-1,6-naphthyridine-3-carboxylate]
- IC50 (arteria basilaris; Oryctolagus cuniculus): 15 nM
- IC50 (arteria coronaria; Oryctolagus cuniculus): 65 nM
- activation at 0.3 µM ([1]; Cavia porcellus, 3×10^-7 mol/liter, read-out: maximum increase of the contractility): 36%
- activation at 0.004 µM ([1]; Cavia porcellus, 4×10^-9 mol/liter, read-out: increase of the contractility): 18%
- IC50 (arteria saphena; Oryctolagus cuniculus): 1000 nM

Molecule: COc1ccc([C@@H]2Sc3ccccc3N(CCN(C)C)C(=O)[C@@H]2OC(C)=O)cc1 [diltiazem, reference compound]
- IC50 (arteria basilaris; Oryctolagus cuniculus): 120 nM
- IC50 (arteria coronaria; Oryctolagus cuniculus): 170 nM
- IC50 [1, 3]: 10 µM
- IC50 (arteria saphena; Oryctolagus cuniculus): 2900 nM

Molecule: CCCOc1nccc2c1C(c1ccccc1C(F)(F)F)C(C(=O)OC)=C(C)N2 (racemic) [Example 1h, methyl (±)-1,4-dihydro-2-methyl-5-propoxy-4-(2-trifluoromethylphenyl)-1,6-naphthyridine-3-carboxylate]
- IC50 (arteria basilaris; Oryctolagus cuniculus): 3000 nM
- IC50 (arteria coronaria; Oryctolagus cuniculus): 15 nM
- IC50 (arteria saphena; Oryctolagus cuniculus): 1000 nM

Molecule: CCOC(=O)C1=C(C)Nc2ccnc(OCC(C)C)c2C1c1ccccc1C(F)(F)F (racemic) [Example 1q, ethyl (±)-1,4-dihydro-5-isobutoxy-2-methyl-4-(2-trifluoromethylphenyl)-1,6-naphthyridine-3-carboxylate]
- IC50 (arteria basilaris; Oryctolagus cuniculus): 35 nM
- IC50 (arteria coronaria; Oryctolagus cuniculus): 190 nM
- IC50 [1, 3]: 10 µM

Molecule: methyl (±)-4-(2-bromoethyl)-1,4-dihydro-5-isopropoxy-2-methyl-1,6-naphthyridine-3-carboxylate [Example 1a]
- IC50 (arteria basilaris): 2.4 nM
- IC50 (arteria coronaria): 2.7 nM
- Δ% = maximum decrease of the contractility ([1]; at IC100, papillary muscle of guinea pig, 250/min, 10 msec, 10-20 V field stimulation): -48%
- IC50 ([1]; papillary muscle of guinea pig, 250/min, 10 msec, 10-20 V field stimulation): 300 µM
- IC50 (arteria saphena): 8 nM

Molecule: COC(=O)C1=C(C)Nc2ccnc(OC(C)C)c2C1c1ccccc1F (racemic) [Example 1, Methyl (±)-4-(2-fluorophenyl)-1,4-dihydro-5-isopropoxy-2-methyl-1,6-naphthyridine-3-carboxylate]
- IC50 (arteria basilaris; Oryctolagus cuniculus): 5 nM
- IC50 (arteria coronaria; Oryctolagus cuniculus): 30 nM
- IC50 [1, 3]: 300 µM
- IC50 (arteria saphena; Oryctolagus cuniculus): 7 nM

Molecule: COC(=O)C1=C(C)Nc2ccnc(OC(C)C)c2C1c1ccccc1[N+](=O)[O-] (racemic) [Example 1b, methyl (±)-1,4-dihydro-5-isopropoxy-2-methyl-4-(2-nitrophenyl)-1,6-naphthyridine-3-carboxylate]
- IC50 (arteria basilaris; Oryctolagus cuniculus): 0.66 nM
- IC50 (arteria coronaria; Oryctolagus cuniculus): 0.75 nM
- IC50 (arteria saphena; Oryctolagus cuniculus): 3.4 nM

Molecule: COC(=O)C1=C(C)Nc2ccnc(OC)c2C1c1ccccc1 (racemic) [Example 2, Methyl (±)-1,4-dihydro-5-methoxy-2-methyl-4-phenyl-1,6-naphthyridine-3-carboxylate]
- IC50 (arteria basilaris; Oryctolagus cuniculus): 250 nM
- IC50 (arteria coronaria; Oryctolagus cuniculus): 1000 nM
- IC50 (arteria saphena; Oryctolagus cuniculus): 90 nM

Molecule: COC(=O)C1=C(C)NC(C)=C(C(=O)OC)C1c1ccccc1[N+](=O)[O-] [nifedipine, reference compound]
- IC50 (arteria basilaris; Oryctolagus cuniculus): 2.7 nM
- IC50 (arteria coronaria; Oryctolagus cuniculus): 5 nM
- IC50 ([2]; read-out: IC50 /100 (IC = inhibition concentration, IC100 corresponds to maximum action)): 1000 nM
- Δ% = maximum decrease of the contractility [2]: -80%
- IC50 (arteria saphena; Oryctolagus cuniculus): 59 nM

Molecule: CCOC(=O)C1=C(C)Nc2ccnc(OC(C)C)c2C1c1ccccc1C(F)(F)F (racemic) [Example 1l, ethyl (±)-1,4-dihydro-5-isopropoxy-2-methyl-4-(2-trifluoromethylphenyl)-1,6-naphthyridine-3-carboxylate]
- IC50 (arteria basilaris; Oryctolagus cuniculus): 7.4 nM
- IC50 (arteria coronaria; Oryctolagus cuniculus): 31 nM
- IC50 [1, 3]: 120 µM
- IC50 (arteria saphena; Oryctolagus cuniculus): 390 nM

Molecule: COC(=O)C1=C(C)Nc2ccnc(OC(C)C)c2C1c1c(F)cccc1Cl (racemic) [Example 1g, methyl (±)-4-(2-chloro-6-fluorophenyl)-1,4-dihydro-5-isopropoxy-2-methyl-1,6-naphthyridine-3-carboxylate]
- IC50 (arteria basilaris; Oryctolagus cuniculus): 5.9 nM
- IC50 (arteria coronaria; Oryctolagus cuniculus): 3.2 nM

Molecule: CCOC(=O)C1=C(C)Nc2ccnc(OC)c2C1c1ccccc1Cl (racemic) [Example 2a, ethyl (±)-4-(2-chlorophenyl)-1,4-dihydro-5-methoxy-2-methyl-1,6-naphthyridine-3-carboxylate]
- IC50 (arteria basilaris; Oryctolagus cuniculus): 6 nM
- IC50 (arteria coronaria; Oryctolagus cuniculus): 10 nM
- IC50 (arteria saphena; Oryctolagus cuniculus): 600 nM
